Test results reported in a melting point compilation (Tetko et al.; mined from patent text by program, amines drawn as free bases though some values may be those of a salt).

melting point [°C]	SMILES
83 to 86	CCCCCCCC(=O)c1ccc(CCC(CCOC(C)=O)(CCOC(C)=O)NC(C)=O)cc1
123 to 125	CCC(=O)NCC(CCO)c1cccc2ccc(OC)cc12 (stereo not given)
136 to 138	COC(=O)c1c(-c2cc(OC)c(OC)c(OC)c2)c2cc(OC)c(CC#N)cc2c(=O)n1-c1ccc(NC(=O)OC(C)(C)C)cc1
199	CC(C)(C)c1cccc(S(=O)(=O)n2c(Cc3ccc(C(=O)O)cc3)cc3ccc(C(F)(F)F)cc32)c1
76 to 77	CCOC(=O)Cc1ccc([N+](=O)[O-])c(OCC(F)(F)F)c1
125 to 128	CN1N=C2c3cc(F)ccc3SCC2CC1=O (stereo not given)
88 to 90	CN(C)CCNc1ccc(NCCCCN)c2c1C(=O)c1ccccc1C2=O
173 to 175	CCCN(CC(=O)Nc1c(SC)nc(C)nc1N(CC)CC)c1ccccc1
161 to 162	COc1ccc2c(c1)CCC1C2C(O)CC2(C)C(O)CCC12 (stereo not given)
87	CCOC(=O)c1ccc(N=C(C)c2ccccc2)cc1
113 to 114	COc1cc(C=O)c(C=O)cc1OCCCl
101 to 102	CC(=O)C(C)(O)c1ccc(O)cc1 (stereo not given)
198 to 203	Cc1ccccc1C(=O)Nc1ccc(C(=O)N2Cc3ccccc3Cc3ccccc32)cc1
109 to 111	CCOC(=O)c1nc2cc(C)c(C)cc2nc1Cl
42 to 43	CCCCCCCCCC[C@H](CC(=O)OC(C)(C)C)C(=O)N1C(=O)OC[C@@H]1C(C)C
170	O=C(NCCc1ccc(Cl)cc1Cl)Nc1cccc2[nH]ccc12
242 to 244	CC(=O)C(=CNc1cc(Cl)c(Cl)c(C(=O)O)c1Cl)C(C)=O
95 to 97	CCOc1ccccc1OC(Cc1ccccc1)C1=NCCN1 (stereo not given)
168 to 171	Cc1ccccc1C1(O)C=C(C(C)(C)C)C(=O)C(C(C)(C)C)=C1
96.5 to 97.5	CCCCCS(=O)(=O)NC(=O)CCc1ccc(OCCC2(C)OCCO2)cc1Oc1ncc(C(F)(F)F)cc1Cl
130	CCC(C#N)c1cccc(C(=O)c2cc3cc(C(=O)OC)sc3s2)c1 (stereo not given)
92 to 94	CN(C)CCOc1cc(O)cc(/C=C/c2ccc(O)cc2)c1
112 to 117	CCCc1c(OCCCCCCCCOc2ccc(C(=O)c3cccc(C(=O)O)c3)cc2CCC(=O)O)ccc2c1OCCC2=O
96 to 98	Cc1c(C)c2c(c(C)c1O)CCC(C)(CCc1ccccc1)O2 (stereo not given)

melting point [°C]	SMILES
108 to 110	CCN1CCOc2nc(Cl)c(Cl)nc21
43 to 44	COC(=O)c1cc(Br)ccc1Cl
195	Cn1nc(-c2ccc([N+](=O)[O-])o2)c2c(Cl)ncnc21
214 to 216	CCc1nn(-c2ccc(F)cc2)c2cc(C3=CCC(C(=O)O)CC3)ccc12 (stereo not given)
209 to 210	COc1ccc(CN2c3ncccc3NC(=O)c3cccnc32)cc1
137 to 141	Cc1c(Cc2ccc(C(C)C)cc2)c2c(c(C)c1NC(=O)CC(C)(C)C)C(c1ccccc1)CO2 (stereo not given)
89 to 90	C=CCSc1cc(-c2ccc(C(F)(F)F)cc2)ccc1C#N
121 to 124	CCc1nc2c(O)c(CCC(O)c3ccccc3)c(C(=O)N(C)C)cc2n1C (stereo not given)
156 to 157	CC(=O)OCC1OC(n2ccc3c(C)cccc32)C(OC(C)=O)C(OC(C)=O)C1OC(C)=O (stereo not given)
165 to 166	CN1CCCC1CNC(=O)c1cc(S(=O)(=O)N(C)C)cc2c1OCCO2 (stereo not given)
210 to 215	Cn1ncc(C(=O)N2CCCC2)c1C(=O)Nc1ccn2nc(-c3ccccc3)nc2c1
205 to 206	COc1cc(OC)c2c(=O)c(OCCOc3ccc(C(C)=C4SC(=O)NC4=O)cc3)c(-c3ccc(OC)c(OC)c3)oc2c1
150	COc1cc(C#N)c2c(c1OC)C(=O)CC2
135 to 136	COc1ccc(OC)c(Sc2ncccc2C(=O)NCC23CC4CC(CC(C4)C2)C3)c1
113 to 114	Cc1c(Cl)cccc1NC(=O)C(C)(C)C
95	O=C(NCCCl)NCc1cccnc1
66 to 67	CCCn1nc(-c2ccc(OC(=O)CC)cc2)c2cccc(Cl)c21
106 to 108	CC(C)c1cc(C(=O)Nc2ccc(C(=O)O)nc2)oc1C(C)C
72 to 78	CS(=O)(=O)c1ccc(C(=O)C2C(=O)CCCC2=O)c(Cl)c1OCc1cc(-c2ccccc2)no1
134	O=C1C(c2ccccc2)=C(c2c(Cl)cccc2Cl)C(=O)N1c1ccc(Cl)cc1
62 to 63.5	CC(=O)N1CC(CCN(C)C)Cc2ccc(OCc3ccc(-c4ccccc4)cc3)cc21 (stereo not given)
266	Cc1c(C(=O)Nc2ccc(N3CCC(N4CCOCC4)CC3)c(C#N)c2)cnn1-c1ccc(F)c(Cl)c1
164 to 166	O=C(CNC(=O)c1ccc(F)cc1)c1cccnc1
50	O=Cc1cnc(Oc2ccccc2)s1

melting point [°C]	SMILES
140 to 142	CCNC(=O)c1c([Si](C)(C)C)ccc(C=O)c1Cl
48 to 49	COC(=O)c1sc(S)c(Cl)c1O
187	O=C(N[C@H]1CCN(C(=O)c2cc(C(F)(F)F)cc(C(F)(F)F)c2)[C@H](Cc2ccccc2)C1)c1ccnc2ccccc12
98	FC(F)(F)c1cc(Cl)c(Oc2ccc3ccc(S)cc3c2)c(Cl)c1
181 to 183	CC(C)NC(=O)c1ccc(-c2ccc3nnn(Cc4ccc5ncccc5c4)c3n2)cc1
181 to 182	Cc1oc(-c2ccc3ccccc3c2)nc1COc1ccc(CO)cc1
295 to 296	CNc1nc(NS(=O)(=O)c2ccc(N)cc2)cc(N2CCC2)n1
79 to 80	CCOC(=O)C=C(C)Nc1ccc(F)c(OCc2ccccc2)c1
184 to 185	COc1cc(N(Cc2cccnc2)c2ccc(C(=O)O)cc2)ccc1OC(F)F
25 to 26	COc1ccc(F)c(O)c1
106 to 110	CCCC1CCCN(C(=O)C2Cc3ccccc3N2c2ccc(=O)n(C)n2)C1 (stereo not given)
186 to 189	COc1cc(C=O)cc(OC)c1OC1OC(CO)C(O)C(O)C1NC(C)=O (stereo not given)
235 to 236	Cn1ncc(C(=O)N2CCC2)c1C(=O)Nc1ccc2nc(-c3ccccc3)nn2c1
> 300	CN1Cc2c(S(=O)(=O)Cl)cc3[nH]c(=O)c(=O)[nH]c3c2C1
246	CC(C)(C)NC(=O)NC(C)(C)C
246 to 249	Cc1n[nH]c2ccc(-c3ccc4nnn(Cc5ccc6ncccc6c5)c4n3)cc12
104 to 105	O=C1CC(O)CC(CCc2c(Cl)cc(Cl)cc2OCc2ccc(C(F)(F)F)cc2)O1 (stereo not given)
233 to 235	O=C(O)COc1cccc(CSc2nc(-c3ccccc3)c(-c3ccccc3)[nH]2)c1
130 to 132	Cn1cc(Br)cc(Nc2ccc(N3CCN(C(=O)OC(C)(C)C)CC3=O)cn2)c1=O
161 to 163	COc1ccncc1Nc1nc(N2CCOCC2)nc(-n2c(C(F)F)nc3ccccc32)n1
180 to 182	CCc1cc(-c2nc(C)c(-c3ccnc(Nc4cccc(CNC(C)=O)c4)n3)s2)ccn1
248 to 250	CC1NC(=O)NN=C1c1ccc(N)cc1 (stereo not given)
89 to 94	c1cc(-c2noc(C3CC3)n2)ncn1
147 to 149	CON1C(C)(C)CC(OC(=O)NNC(=O)OC2CC(C)(C)N(OC)C(C)(C)C2)CC1(C)C

melting point [°C]	SMILES
208 to 210	Cc1cccc(NC(=O)NCC(=O)Nc2ccccc2C(=O)c2cccs2)c1
244 to 245	O=C(O)c1ccc2ccc(-c3ccccc3)cc2c1
159 to 164	CC(=C(c1ccc(N(C)C)cc1)c1ccc(N(C)C)cc1)P(C1CCCCC1)C1CCCCC1
175	COc1ccc(CN2CCC(C(=O)O)(S(=O)(=O)c3ccc(OC)cc3)CC2)cc1
126 to 128	O=C1[C@H]2CCC[C@H]2Nc2ccccc2N1Cc1cccc2ccccc12 (relative stereo)
86 to 89	O=C(O)CCCc1cc2nc(Cl)ccc2n1S(=O)(=O)c1cc(Cl)ccc1Cl
147 to 149	C=CCSC1(C(F)(F)F)C=NC(=O)Nc2ccc(Cl)cc21 (stereo not given)
100 to 102	CC(CCc1ccc(CC(=O)O)cc1)CC(=O)O (stereo not given)
59 to 61	COCCCC#Cc1ccccc1S(N)(=O)=O
201 to 204	CCO/C(C)=C(/C#N)C(N)=S
177 to 179	CCCS(=O)(=O)Cc1cccc(-c2nc(=O)c3ccccc3s2)n1
182 to 186	COc1ccc(-c2nc(C)c(Cl)[nH]2)cc1
228 to 231	O=C1CCc2cc(Cl)c(S(=O)(=O)NCc3ccccc3)cc21
88 to 89	CCOC(=O)c1noc(-c2ccc(Cl)cc2)n1
61.5 to 62.5	COc1ccc(C(=O)Oc2ccccc2)c(O)c1
90 to 93	CCON=C(C(C)=NOCc1ccccc1C(=NOC)C(=O)OC)c1ccc(Oc2ccc(Cl)cc2)cc1
104 to 108	O=C(O)C(CC(c1ccc(OCc2ccc3ccccc3n2)cc1)c1ccc(OCc2ccc3ccccc3n2)cc1)=NO
134 to 136	CN(C)CCCN(c1ccccc1)c1ncccc1NC(=O)c1ccccc1[N+](=O)[O-]
53 to 54	CCCCCCCCCCCCCCCCOc1cccc(O)c1C
171 to 173	O=C(c1ccccc1)c1c(O)cc(-c2ccccc2)oc1=O
110 to 114	COc1ccnc(C(=O)N[C@H]2COC(=O)[C@H](Cc3ccccc3)[C@@H](O)[C@H](C)OC2=O)c1OCc1ccccc1
> 230	Cc1c(O)c(=O)ccn1CC(=O)O
196 to 198	CC(Oc1ncn(-c2ccc(Cl)cc2)n1)C(=O)O (stereo not given)

SMILES	melting point [°C]
CCc1csc2c(C(=O)O)c(=O)c3cc(F)c(N4CCNCC4)cc3n12	247 to 251
Cc1ncn2c1CN(C)C(=O)c1ccccc1-2	184 to 186
CCOC(=O)N(C)NC1=Nc2sc(CC)cc2C(c2ccccc2Cl)=NC1	172 to 174
[N-]=[N+]=Nc1cc(=O)oc2ccccc12	159 to 160
CNC(=C[N+](=O)[O-])N1CC1	118 to 119
